Data set [1] concerns HXB2 virus. The data set is described as follows: microbe, parasite or virus in culture. The data set is classed as cell-based, HIV. The method in brief:
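HXB2 virus used to infect HeLa P4-2 cells in a single-cycle format; inhibition of acute infection is measured.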

For data set [2], the system named is HeLa P4-2 cell line. An excerpt:
The HeLa P4-2 cell line used in the single cycle HIV infectivity Assay B of Example 270 was also used to determine compound cytotoxicity in the absence of viral infection.

Data set [3] concerns the target HIV-1 reverse transcriptase (RNase H) (Human immunodeficiency virus type 1 group M subtype B, UniProt P04585). The data set is described as follows: ASH assay: RNase H mediated RNA cleavage (ECL format, BioVeris M384). It counts as biochemical. The method, then: Potency of a substance as an RNase H inhibitors can be determined by measuring its ability prevent RNase H catalyzed cleavage of the RNA strand in a RNA/DNA hybrid duplex substrate. RNase H activity is measured using a substrate generated by annealing the oligoribo-nucleotide 5′-rCrCrUrCrUrCrArArArArArCrArGrGrArGrCrArGrArArArGrArCrArArG (SEQ ID NO:1) to the oligodeoxyribonucleotide 5′-Biotin-[…] (SEQ ID NO:2). […] (SEQ ID NO:3). The resulting double-stranded duplex DNA product is quantitated in an ALPHA screen format using [streptavidin- and anti-fluorescein-coated beads (Packard Bioscience) following the manufacturer's guidelines and reading on a Fusion AlphaScreen instrument. Alternatively, the released 5′-Biotinylated DNA is annealed to a complementary oligodeoxyribonucleotide: 5′-ruthenium-[…] (SEQ ID NO:3). The resulting double-stranded duplex DNA product is quantitated in an ECL screen format using Dynabeads M280 coated with streptavidin (BioVeris Corporation) following the manufacturer's guidelines and reading on a BioVeris M384 Analyzer.

In data set [4] the target is HIV integrase (Human immunodeficiency virus type 1 group M subtype B, UniProt P04585). The data set is described as follows: integrase strand transfer assay (STA). The data set is classed as biochemical.
Where [5] appears, read: Human immunodeficiency virus 1, HXB2, HeLaP4-2, read-out: SCIA-B (IC50, μM).
[6] abbreviates: Human immunodeficiency virus 1, HXB2, HeLaP4-2, read-out: antiviral IC50 (SCIA-B).
Setting [7] is: RNase H mediated RNA cleavage assay, Example 269, read-out: ASH (IC50).
The mark [8] stands for this setting: integrase strand transfer, read-out: IC50 in the STA assay.
[9] abbreviates: integrase strand-transfer assay, Example 269, read-out: STA (IC50).
Where [10] appears, read: IC50 in the STA assay, integrase strand transfer.
The mark [11] stands for this setting: STA (IC50, μM), integrase strand-transfer assay, Example 269.

Where two headings read alike, the source gives them in different places.

As usually defined, the IC50 is the concentration needed to halve the response being measured.

Regarding `O=c1c(Cc2ccccc2)c(O)c2cc(Cc3ccccc3)cnc2n1O` [Example 66, 3,6-Dibenzyl-l,4-dihydroxy-1,8-naphthyridin-2(1H)-one], the IC50 in data set [1] (setting [5]) was 0.38 µM; in data set [1] (setting [6]), under 100 µM; in data set [3] (setting [7]) it was 490 nM; in data set [4] (setting [8]) it was under 50 µM; in data set [4] (setting [9]), 0.02 µM. Moreover, the “Cytotoxicity (LD50, μM)” value in data set [2] (human) came out at 34 µM.
Consider `O=c1cc(Nc2ccccc2N2CCOCC2)c2cccnc2n1O` [Example 147, 1-hydroxy-4-{[2-(4-morpholinyl)phenyl]amino}-1,8-naphthyridin-2(1H-one)], for which the IC50 in data set [1] (setting [5]) was 0.2 µM; in data set [1] (setting [6]), under 100 µM; in data set [3] it was 17 nM; in data set [4] (setting [10]) it was under 50 µM; in data set [4] (setting [11]) it was 0.22 µM. Besides, the “Cytotoxicity (LD50, μM)” value in data set [2] (human) was 7.7 µM.
Regarding `O=C(NC1CCN(Cc2ccccc2)CC1)c1c(O)c2cccnc2n(O)c1=O.O=C(O)C(F)(F)F` [Example 21, N-(1-Benzylpiperidin-4-yl)-1,4-dihydroxy-2-oxo-1,2-dihydro-1,8-naphthyridine-3-carboxamide, trifluoro-acetic acid salt], the IC50 in data set [1] (setting [5]) was 0.47 µM; in data set [1] (setting [6]) it was under 100 µM; in data set [3], 180 nM; in data set [4] (setting [10]), under 50 µM; in data set [4] (setting [11]) it was 0.25 µM. For the same compound, the “Cytotoxicity (LD50, μM)” value in data set [2] (cytotoxicity test B, Alamar Blue, HeLa P4-2 cells, no virus, tested up to 100 micromolar) is over 100 µM.
Take `COc1cccc(-c2c(O)c3cccnc3n(O)c2=O)c1` [Example 40, 1,4-Dihydroxy-3-(3-methoxyphenyl)-1,8-naphthyridin-2(1H)-one]: the IC50 is 0.67 µM in data set [1] (setting [5]); under 100 µM in data set [1] (setting [6]); 110 nM in data set [3] (setting [7]); under 50 µM in data set [4] (setting [8]); 0.62 µM in data set [4] (setting [9]). For the same compound, in data set [2] (human), the “Cytotoxicity (LD50, μM)” value is over 100 µM.
`O=c1c(-c2cccc(Cl)c2)c(O)c2cccnc2n1O` [Example 33, 3-(3-Chlorophenyl)-1,4-dihydroxy-1,8-naphthyridin-2(1H)-one]: the IC50 in data set [1] (setting [5]) is 0.66 µM; in data set [1] (setting [6]), under 100 µM; in data set [3] (setting [7]) it was 47 nM; in data set [4] (setting [8]) it was under 50 µM; in data set [4] (setting [9]) it was 0.18 µM. Further, the “Cytotoxicity (LD50, μM)” value in data set [2] (human) is over 100 µM.
On to `CNC(=O)c1c(O)c2cccnc2n(O)c1=O` [Example 24, 1,4-Dihydroxy-N-methyl-2-oxo-1,2-dihydro-1,8-naphthyridine-3-carboxamide], for which the IC50 in data set [1] (setting [5]) was 0.22 µM; in data set [1] (setting [6]), under 100 µM; in data set [3], 180 nM; in data set [4] (setting [10]), under 50 µM; in data set [4] (setting [11]), 0.55 µM. In data set [2] (human), the “Cytotoxicity (LD50, μM)” value was over 100 µM.
Regarding `CN(C)CCC(Nc1cc(=O)n(O)c2ncccc12)c1ccccc1` (stereo not drawn) [Example 158, 4-{[3-(dimethylamino)-1-phenylpropyl]amino}-10hydroxy-1,8-naphthyridin-2(1H-one)], the IC50 in data set [1] (setting [5]) was 0.24 µM; in data set [1] (setting [6]), under 100 µM; in data set [3], 360 nM; in data set [4] (setting [10]) it was under 50 µM; in data set [4] (setting [11]) it was 6.5 µM. The “Cytotoxicity (LD50, μM)” value in data set [2] (human) turned out to be 16 µM.
Turning to `O=c1cc(NC2CCc3ccccc32)c2cccnc2n1O` (stereo not drawn) [Example 134, 4-(2,3-dihydro-1H-inden-1-ylamino)-1-hydroxy-1,8-naphthyridin-2(1H)-one], the half-inhibitory concentration (IC50) in data set [1] (setting [5]) is 0.034 µM; in data set [1] (setting [6]), under 100 µM; in data set [3] it was 91 nM; in data set [4] (setting [10]), under 50 µM; in data set [4] (setting [11]), 0.36 µM. Besides, the “Cytotoxicity (LD50, μM)” value in data set [2] (human) amounted to 23 µM.
With `CCOC(=O)c1c(O)c2cc(-c3cccc(O)c3)cnc2n(O)c1=O` [Example 59, Ethyl 1,4-dihydroxy-6-(3-hydroxyphenyl)-2-oxo-1,2-dihydro-1,8-naphthyridine-3-carboxylate], the IC50 is 0.05 µM in data set [1] (setting [5]); under 100 µM in data set [1] (setting [6]); 150 nM in data set [3] (setting [7]); under 50 µM in data set [4] (setting [8]); 0.022 µM in data set [4] (setting [9]). Moreover, the “Cytotoxicity (LD50, μM)” value in data set [2] (human) was 20 µM.
As to `NCc1cccc(-c2cc(=O)n(O)c3ncccc23)c1` [Example 172, 4-[3-(aminomethyl)phenyl]-1-hydroxy-1,8-naphthyridin-2(1H)-one], the IC50 in data set [1] (setting [5]) is 0.26 µM; in data set [1] (setting [6]), under 100 µM; in data set [3] it was 140 nM; in data set [4] (setting [10]), under 50 µM; in data set [4] (setting [11]), 0.22 µM. Besides, the “Cytotoxicity (LD50, μM)” value in data set [2] (human) came to 5.5 µM.
For the compound `NCc1ccc(-c2ccc(Cc3cc(=O)n(O)c4ncccc34)cc2)cc1` [Example 235, 4-{[4′-(aminomethyl)biphenyl-4-yl]methyl}-1-hydroxy-1,8-naphthyridin-2(1H)-one], the IC50 in data set [1] (setting [5]) is 0.13 µM; in data set [1] (setting [6]) it was under 100 µM; in data set [3], 46 nM; in data set [4] (setting [10]), over 50 µM; in data set [4] (setting [11]), over 50 µM. Besides, in data set [2] (human), the “Cytotoxicity (LD50, μM)” value is 7.8 µM.
Regarding `O=c1cc(NCc2ccc(CN3CCOCC3)cc2)c2cccnc2n1O` [Example 111, 1-Hydroxy-4-{[4-(morpholin-4-ylmethyl)benzyl]amino}-1,8-naphthyridin-2(1H)-one], the IC50 in data set [1] (setting [5]) was 0.12 µM; in data set [1] (setting [6]), under 100 µM; in data set [3], 46 nM; in data set [4] (setting [10]), under 50 µM; in data set [4] (setting [11]), 1.8 µM. In data set [2] (human), the “Cytotoxicity (LD50, μM)” value was over 100 µM.
With `CCOC(=O)c1c(O)c2cc(-c3cccc(CN4CCOCC4)c3)cnc2n(O)c1=O` [Example 57, Ethyl 1,4-dihydroxy-6-[3-(morpholin-4-ylmethyl)phenyl]-2-oxo-1,2-dihydro-1,8-naphthyridine-3-carboxylate], the IC50 in data set [1] (setting [5]) was 0.1 µM; in data set [1] (setting [6]), under 100 µM; in data set [3] (setting [7]), 520 nM; in data set [4] (setting [8]), under 50 µM; in data set [4] (setting [9]), 0.069 µM. Moreover, the “Cytotoxicity (LD50, μM)” value in data set [2] (human) came to 36 µM.
In the case of `CN1CCN(Cc2cccc(CNc3cc(=O)n(O)c4ncccc34)c2)CC1` [Example 150, 1-hydroxy-4-({3-[(4-methyl-1-piperazinyl)methyl]benzyl}amino)-1,8-naphthyridin-2(1H-one)], the IC50 in data set [1] (setting [5]) is 0.07 µM; in data set [1] (setting [6]), under 100 µM; in data set [3], 150 nM; in data set [4] (setting [10]), under 50 µM; in data set [4] (setting [11]) it was 1.7 µM. Moreover, the “Cytotoxicity (LD50, μM)” value in data set [2] (human) came to 14 µM.
For the compound `CCOC(=O)c1c(O)c2cc(C(=O)N(C)CCc3ccccc3)cnc2n(O)c1=O` [Example 81, Ethyl 1,4-dihydroxy-6-{[methyl(2-phenylethyl)amino]carbonyl}-2-oxo-1,2-dihydro-1,8-naphthyridine-3-carboxylate], the IC50 in data set [1] (setting [5]) is 0.06 µM; in data set [1] (setting [6]), under 100 µM; in data set [3] (setting [7]), 270 nM; in data set [4] (setting [8]), under 50 µM; in data set [4] (setting [9]), 0.027 µM. The “Cytotoxicity (LD50, μM)” value in data set [2] (human) is over 100 µM.
As to `O=c1cc(NC2CCN(c3ccccc3)CC2)c2cccnc2n1O` [Example 154, 1-hydroxy-4-[(1-phenyl-4-piperidinyl)amino]-1,8-naphthyridin-2(1H-one)], the IC50 in data set [1] (setting [5]) is 0.27 µM; in data set [1] (setting [6]) it was under 100 µM; in data set [3], 200 nM; in data set [4] (setting [10]) it was under 50 µM; in data set [4] (setting [11]), 1.7 µM. Also, in data set [2] (human), the “Cytotoxicity (LD50, μM)” value turned out to be 7.2 µM.
